Read-outs that look alike come from different tables or passages of the source.
What was measured:
[1] = tested on: MDA-MB-468 cancer cell line; assay: Cell growth assay (WST-8); format: cell-based; conditions: Homo sapiens, MDA-MB-468, 96 h; WST-8, 4 days; read-out: Inhibition of cell growth IC50, MDA-MB-468 cancer cell line
In short: (§1)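 Cells (3000–4000/well) grown 4 days with varied compound concentrations, then WST-8 dye added for 1–3 h and absorbance read at 450 nm. Growth inhibition expressed as sample-to-control absorbance ratio.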

[2] = tested on: MDA-MB-231 cancer cell line; assay: Cell growth assay (WST-8); format: cell-based; conditions: Homo sapiens, MDA-MB-231, 96 h; WST-8, 4 days; read-out: Inhibition of cell growth IC50, MDA-MB-231 cancer cell line
In short: as §1

STAT3 protein = target: T1, STAT3 protein (Homo sapiens, UniProt P40763); assay: In vitro competitive STAT3 binding assay (fluorescence polarization)
T1 construct: human STAT3 protein (residues 122-722) fused to His-tag; His-tag
In short: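 FP competition: His-tagged human STAT3 (122-722), 150 nM, with 5 nM 5-Fam-labelled pYLPQTV phosphopeptide tracer (STT2) and titrated inhibitor, read after 2-3 h. IC50 = concentration displacing 50% of tracer, by nonlinear least-squares fit.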

[3] = FP competitive binding, fluorescently tagged STT2 peptide tracer, read-out: Binding affinities to STAT3 IC50

T1 sequence (P40763 122-722): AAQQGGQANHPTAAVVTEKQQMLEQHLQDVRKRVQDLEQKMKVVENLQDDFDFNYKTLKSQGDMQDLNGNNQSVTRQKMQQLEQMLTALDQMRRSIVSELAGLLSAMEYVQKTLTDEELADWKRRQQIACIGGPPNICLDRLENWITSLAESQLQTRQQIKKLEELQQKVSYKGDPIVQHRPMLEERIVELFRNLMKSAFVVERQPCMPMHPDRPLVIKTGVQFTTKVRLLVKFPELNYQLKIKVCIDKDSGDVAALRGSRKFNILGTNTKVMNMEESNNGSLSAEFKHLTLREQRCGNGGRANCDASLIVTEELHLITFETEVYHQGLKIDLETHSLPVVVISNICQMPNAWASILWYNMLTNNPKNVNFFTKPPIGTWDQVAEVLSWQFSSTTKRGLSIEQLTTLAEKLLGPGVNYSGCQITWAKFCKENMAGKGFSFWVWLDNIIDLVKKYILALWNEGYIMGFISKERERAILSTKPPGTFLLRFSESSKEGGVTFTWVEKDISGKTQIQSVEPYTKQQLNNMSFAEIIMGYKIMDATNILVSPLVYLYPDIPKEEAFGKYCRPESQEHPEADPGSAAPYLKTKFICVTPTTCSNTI

Row | Structure (SMILES) | IC50 [1] [µM] | IC50 [2] [µM] | IC50 (STAT3 protein) [µM] | IC50 (STAT3 protein; [3]) [µM]
1 | CNC(=O)[C@H](CCCN)NC(=O)[C@@H]1CC[C@@H]2CCCC[C@H](NC(=O)[C@H](Cc3ccc(OP(=O)(O)O)cc3)NC(=O)OCc3ccccc3)C(=O)N21 [Example 21] | > 100 | > 100 | < 10 | –
2 | O=C(N[C@@H](Cc1ccc(OP(=O)(O)O)cc1)C(=O)N[C@H]1CCCC[C@H]2CC[C@@H](C(=O)N[C@@H](Cc3c[nH]cn3)C(=O)NCc3ccccc3)N2C1=O)OCc1ccccc1 [Example 22] | > 100 | > 50 | < 10 | –
3 | NC(=O)CC[C@H](NC(=O)[C@@H]1CC[C@@H]2CCCC[C@H](NC(=O)CCc3ccc(O)c(C(=O)O)c3)C(=O)N21)C(=O)NCc1ccccc1 [Example 24] | > 100 | > 100 | – | > 100
4 | NC(=O)CC[C@H](NC(=O)[C@@H]1CC[C@@H]2CCCC[C@H](NC(=O)CCc3ccc(CP(=O)(O)O)cc3)C(=O)N21)C(=O)NCc1ccccc1 [Example 25] | > 100 | > 100 | – | > 100
5 | N[C@@H](Cc1ccc(CP(=O)(O)O)cc1)C(=O)N[C@H]1CCCC[C@H]2CC[C@@H](C(=O)N[C@@H](Cc3c[nH]cn3)C(=O)NCc3ccccc3)N2C1=O [Example 26] | > 100 | > 100 | – | > 10
6 | NC(=O)CC[C@H](NC(=O)[C@@H]1CC[C@@H]2CCCC[C@H](NC(=O)[C@@H](N)Cc3ccc(CP(=O)(O)O)cc3)C(=O)N21)C(=O)NCc1ccccc1 [Example 29] | > 100 | > 100 | < 30 | –
7 | CC(=O)N[C@@H](Cc1ccc(CP(=O)(O)O)cc1)C(=O)N[C@H]1CCCC[C@H]2CC[C@@H](C(=O)N[C@@H](CCC(N)=O)C(=O)NCc3ccccc3)N2C1=O [Example 30] | > 100 | > 100 | < 30 | –
8 | CCCCCCCCCCCCCCCC(=O)N[C@@H](Cc1ccc(OP(=O)(O)O)cc1)C(=O)NC1CCCC[C@H]2CC[C@@H](C(=O)N[C@@H](CCC(N)=O)C(=O)NCc3ccccc3)N2C1=O (stereo partly drawn) [Example 37] | < 50 | < 50 | < 10 | –
9 | CCCCCCCCCCCCCCCC(=O)N[C@@H](Cc1ccc(OP(=O)(O)O)cc1)C(=O)NC1CCCC[C@H]2CC[C@@H](C(=O)N[C@@H](Cc3c[nH]cn3)C(=O)NCc3ccccc3)N2C1=O (stereo partly drawn) [Example 38] | < 60 | < 50 | < 100 | –
10 | NC(=O)CC[C@H](NC(=O)[C@@H]1CCC2CCCC[C@H](NC(=O)/C=C/c3ccc(OP(=O)(O)O)cc3)C(=O)N21)C(=O)NCc1ccccc1 (stereo partly drawn) [Example 56] | > 100 | > 100 | < 1 | –
11 | NC(=O)CC[C@H](NC(=O)[C@@H]1CCC2CCCC[C@H](NC(=O)c3cc4cc(OP(=O)(O)O)ccc4[nH]3)C(=O)N21)C(=O)NCc1ccccc1 (stereo partly drawn) [Example 57] | > 100 | > 100 | < 1 | –
12 | NC(=O)CC[C@H](NC(=O)[C@@H]1CCC2CCCC[C@H](NC(=O)c3cc4cc(CP(=O)(O)O)ccc4[nH]3)C(=O)N21)C(=O)NCc1ccccc1 (stereo partly drawn) [Example 58] | > 100 | > 100 | < 10 | –

— patent US20110319362A1, “STAT3 LIGANDS AND THERAPEUTIC USES THEREOF” (priority 2008, published 2011)
